Laboratory results: patent US8853246B2 (Dow AgroSciences LLC, priority 2009, dated 2014)
Where two headings read alike, the source gives them in different places.

Key:
[1] = test system: Green Peach Aphid (Myzus Persicae); assay: Insecticidal test for green peach aphid in foliar spray assay (col. MYZUPE); format: in vivo; conditions: for pest or weed control at 200 ppm: Myzus persicae, 72 h, read-out: MYZUPE 200 ppm (Corrected % Control, rating)
Procedure, shortened: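 Cabbage seedlings with 2-3 true leaves, infested with 20-50 wingless adult and nymph aphids one day earlier, sprayed to runoff at 200 ppm (acetone/methanol stock diluted in 0.025% Tween 20), four pots per treatment. After 3 days at ~25 °C, 40% RH, live aphids counted; corrected % control versus solvent-sprayed plants.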

[2] = test system: Sweetpotato Whitefly-Crawler (Bemisia Tabaci); assay: Insecticidal test for sweetpotato whitefly-crawler in foliar spray assay (col. BEMITA); format: in vivo; conditions: for pest or weed control at 200 ppm: Bemisia tabaci, read-out: BEMITA 200 ppm (Corrected % Control, rating)
Procedure, shortened: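 Cotton plants (one 3-5 cm true leaf) infested with whitefly eggs (100-300/plant), held 5-6 days at 82° F, 50% RH until crawlers developed. Sprayed to runoff at 200 ppm (acetone stock diluted in 0.025% Tween 20), four plants per treatment. Live nymphs counted after 8-9 days; % control by Abbott's correction versus solvent check.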

SMILES	pest or weed control at 200 ppm ([1]; Abbott's correction formula)	pest or weed control at 200 ppm ([2]; Abbott's correction formula)	further results
CCN(C(=O)C(C)C)c1sc(-c2cncc(F)c2)nc1F [Compound 424]			pest or weed control at 200 ppm ([1]; green peach aphid): 80 to 100%; pest or weed control at 200 ppm ([2]; sweetpotato whitefly-crawler): 80 to 100%
CCN(C(=O)CCSC)c1sc(-c2cncc(F)c2)nc1F [Compound 425]			pest or weed control at 200 ppm ([1]; green peach aphid): 80 to 100%; pest or weed control at 200 ppm ([2]; sweetpotato whitefly-crawler): 80 to 100%
C=CCN(C(=O)C(C)CSC)c1sc(-c2cccnc2)nc1C (stereo not shown) [Compound 426]			pest or weed control at 200 ppm ([1]; green peach aphid): 80 to 100%; pest or weed control at 200 ppm ([2]; sweetpotato whitefly-crawler): 80 to 100%
CCN(C(=O)CC[S+](C)[O-])c1sc(-c2cncc(F)c2)nc1F (stereo not shown) [Compound 427]	80 to 100%	80 to 100%	
Cc1nc(-c2cccnc2)sc1NC(=O)C(F)(F)C(F)(F)C(F)(F)C(F)(F)F [Compound 428]	< 80%	< 80%	
Cc1nc(-c2cccnc2)sc1NC(=O)CN(C)C(=O)C(C)n1cccn1 (stereo not shown) [Compound 429]	80 to 100%	< 80%	
Cc1nc(-c2cccnc2)sc1N(C)C(=O)CN(C)C(=O)C(C)n1cccn1 (stereo not shown) [Compound 430]	80 to 100%	< 80%	
CC(C(=O)N(C)CC(=O)N(C)c1sc(-c2cccnc2)nc1Cl)n1cccn1 (stereo not shown) [Compound 431]	80 to 100%	< 80%	
CN(C)CC(=O)N(C)c1sc(-c2cccnc2)nc1Cl [Compound 432]	< 80%	< 80%	
Cc1nc(-c2cccnc2)sc1N(C)C(=O)CN(C)S(C)(=O)=O [Compound 433]	80 to 100%	80 to 100%	
CN(C(=O)CN(C)S(C)(=O)=O)c1sc(-c2cccnc2)nc1Cl [Compound 434]	80 to 100%	80 to 100%	
Cc1nc(-c2cccnc2)sc1NC(=O)CN(C)S(=O)(=O)/C=C/c1ccccc1 [Compound 435]	< 80%	< 80%	
Cc1nc(-c2cccnc2)sc1N(C)C(=O)CN(C)S(=O)(=O)/C=C/c1ccccc1 [Compound 436]	< 80%	< 80%	
CN(C(=O)CN(C)S(=O)(=O)/C=C/c1ccccc1)c1sc(-c2cccnc2)nc1Cl [Compound 437]	< 80%	< 80%	
Cc1nc(-c2cccnc2)sc1NC(=O)CN(C)C(=O)c1cccs1 [Compound 438]	80 to 100%	< 80%	
Cc1nc(-c2cccnc2)sc1N(C)C(=O)[C@@H](C)N(C)C(=O)OCc1ccccc1 [Compound 439]	< 80%	< 80%	
C[C@H](C(=O)N(C)c1sc(-c2cccnc2)nc1Cl)N(C)C(=O)OCc1ccccc1 [Compound 440]	< 80%	< 80%	
CSCCC(=O)N(C)c1sc(-c2cncc(F)c2)nc1Br [Compound 441]	80 to 100%	80 to 100%	
CSC(C)CC(=O)N(C)c1sc(-c2cncc(F)c2)nc1Cl (stereo not shown) [Compound 442]	80 to 100%	80 to 100%	
CSC(C)(C)CC(=O)N(C)c1sc(-c2cncc(F)c2)nc1Cl [Compound 443]	80 to 100%	80 to 100%	
CSC(C)C(C)C(=O)N(C)c1sc(-c2cncc(F)c2)nc1Cl (stereo not shown) [Compound 444]	80 to 100%	80 to 100%	
CCN(C(=O)CC(C)SC)c1sc(-c2cncc(F)c2)nc1Cl (stereo not shown) [Compound 446]	80 to 100%	80 to 100%	
CCN(C(=O)CC(C)(C)SC)c1sc(-c2cncc(F)c2)nc1Cl [Compound 447]	80 to 100%	80 to 100%	
CSCCNC(=S)Nc1sc(-c2cncc(F)c2)nc1Cl [Compound 450]	80 to 100%	80 to 100%	
C[S+]([O-])CCC(=O)Nc1sc(-c2cncc(F)c2)nc1Cl (stereo not shown) [Compound 451]			MYZUPE 200 ppm (Corrected % Control, rating) ([1]; Abbott's correction formula): A (80-100); BEMITA 200 ppm (Corrected % Control, rating) ([2]; Abbott's correction formula): B (Less than 80)
CCN(C(=O)OC(C)(C)C)c1sc(-c2cccnc2)nc1Br [Compound 452]	80 to 100%	80 to 100%	
CSCCC(=O)N(C)c1sc(-c2ccc(F)nc2)nc1Cl [Compound 453, N-[4-chloro-2-(6-fluoro-pyridin-3-yl)-thiazol-5-yl]-N-methyl-3-methylsulfanyl-propionamide]	80 to 100%	80 to 100%	
CCN(C(=O)C(C)CSC)c1sc(-c2cncc(F)c2)nc1F (stereo not shown) [Compound 456]	80 to 100%	< 80%	
CCN(C(=O)C(C)C)c1sc(-c2cccnc2)nc1Br [Compound 457]	80 to 100%	80 to 100%	
